From the NIST ThermoML archive (doi:10.1021/acs.jced.7b00769)

Test: xn = mol fraction of the nth substance listed
Conditions: Gas, isochoric method

FC(F)(F)/C=C/Cl [(E)-1-chloro-3,3,3-trifluoroprop-1-ene] + CC(C)C
Conditions	specific volume [m3/kg]
303.15 K, 113.3 kPa, x2 = 0.125	0.174
303.15 K, 186.5 kPa, x2 = 0.564	0.1429
308.15 K, 115.4 kPa, x2 = 0.125	0.1741
308.15 K, 190.1 kPa, x2 = 0.564	0.1429
313.15 K, 117.5 kPa, x2 = 0.125	0.1741
313.15 K, 193.7 kPa, x2 = 0.564	0.143
313.15 K, 197.4 kPa, x2 = 0.453	0.1261
318.15 K, 119.6 kPa, x2 = 0.125	0.1742
318.15 K, 197.5 kPa, x2 = 0.564	0.143
318.15 K, 200.9 kPa, x2 = 0.453	0.1262
318.15 K, 340.9 kPa, x2 = 0.746	0.0926
323.15 K, 121.8 kPa, x2 = 0.125	0.1742
323.15 K, 200.9 kPa, x2 = 0.564	0.143
323.15 K, 204.5 kPa, x2 = 0.453	0.1262
323.15 K, 347.6 kPa, x2 = 0.746	0.0926
328.15 K, 123.8 kPa, x2 = 0.125	0.1742
328.15 K, 204.3 kPa, x2 = 0.564	0.143
328.15 K, 208 kPa, x2 = 0.453	0.1262
328.15 K, 353.9 kPa, x2 = 0.746	0.0926
333.15 K, 125.8 kPa, x2 = 0.125	0.1743
333.15 K, 207.8 kPa, x2 = 0.564	0.1431
333.15 K, 211.4 kPa, x2 = 0.453	0.1262
333.15 K, 360.6 kPa, x2 = 0.746	0.0926
333.15 K, 648.1 kPa, x2 = 0.865	0.0535
338.15 K, 128.2 kPa, x2 = 0.125	0.1743
338.15 K, 211.1 kPa, x2 = 0.564	0.1431
338.15 K, 214.9 kPa, x2 = 0.453	0.1263
338.15 K, 366.9 kPa, x2 = 0.746	0.0926
338.15 K, 576.1 kPa, x2 = 0.644	0.0499
338.15 K, 661.4 kPa, x2 = 0.865	0.0535
343.15 K, 130.2 kPa, x2 = 0.125	0.1744
343.15 K, 214.6 kPa, x2 = 0.564	0.1431
343.15 K, 218.5 kPa, x2 = 0.453	0.1263
343.15 K, 373.2 kPa, x2 = 0.746	0.0927
343.15 K, 587.5 kPa, x2 = 0.644	0.0499
343.15 K, 674.5 kPa, x2 = 0.865	0.0536
348.15 K, 132.2 kPa, x2 = 0.125	0.1744
348.15 K, 218 kPa, x2 = 0.564	0.1432
348.15 K, 222 kPa, x2 = 0.453	0.1263
348.15 K, 379.5 kPa, x2 = 0.746	0.0927
348.15 K, 598.7 kPa, x2 = 0.644	0.0499
348.15 K, 687.5 kPa, x2 = 0.865	0.0536
353.15 K, 134.4 kPa, x2 = 0.125	0.1744
353.15 K, 221.4 kPa, x2 = 0.564	0.1432
353.15 K, 225.5 kPa, x2 = 0.453	0.1264
353.15 K, 385.8 kPa, x2 = 0.746	0.0927
353.15 K, 609.8 kPa, x2 = 0.644	0.0499
353.15 K, 700.5 kPa, x2 = 0.865	0.0536
358.15 K, 136.3 kPa, x2 = 0.125	0.1745
358.15 K, 224.6 kPa, x2 = 0.564	0.1432
358.15 K, 229 kPa, x2 = 0.453	0.1264
358.15 K, 391.8 kPa, x2 = 0.746	0.0927
358.15 K, 620.8 kPa, x2 = 0.644	0.0499
358.15 K, 713.3 kPa, x2 = 0.865	0.0536
363.15 K, 138.3 kPa, x2 = 0.125	0.1745
363.15 K, 228.1 kPa, x2 = 0.564	0.1433
363.15 K, 232.1 kPa, x2 = 0.453	0.1264
363.15 K, 398.1 kPa, x2 = 0.746	0.0927
363.15 K, 631.1 kPa, x2 = 0.644	0.05
363.15 K, 726.1 kPa, x2 = 0.865	0.0536
368.15 K, 140.4 kPa, x2 = 0.125	0.1745
368.15 K, 231.5 kPa, x2 = 0.564	0.1433
368.15 K, 235.6 kPa, x2 = 0.453	0.1264
368.15 K, 404.2 kPa, x2 = 0.746	0.0928
368.15 K, 642.6 kPa, x2 = 0.644	0.05
368.15 K, 738.7 kPa, x2 = 0.865	0.0536
373.15 K, 142.3 kPa, x2 = 0.125	0.1746
373.15 K, 234.8 kPa, x2 = 0.564	0.1433
373.15 K, 239.1 kPa, x2 = 0.453	0.1265
373.15 K, 410.7 kPa, x2 = 0.746	0.0928
373.15 K, 653.2 kPa, x2 = 0.644	0.05
373.15 K, 751.4 kPa, x2 = 0.865	0.0536
378.15 K, 144.4 kPa, x2 = 0.125	0.1746
378.15 K, 238.2 kPa, x2 = 0.564	0.1434
378.15 K, 242.6 kPa, x2 = 0.453	0.1265
378.15 K, 416.9 kPa, x2 = 0.746	0.0928
378.15 K, 664.1 kPa, x2 = 0.644	0.05
378.15 K, 763.9 kPa, x2 = 0.865	0.0536
383.15 K, 146.5 kPa, x2 = 0.125	0.1747
383.15 K, 241.7 kPa, x2 = 0.564	0.1434
383.15 K, 246.4 kPa, x2 = 0.453	0.1265
383.15 K, 423.2 kPa, x2 = 0.746	0.0928
383.15 K, 675 kPa, x2 = 0.644	0.05
383.15 K, 776.5 kPa, x2 = 0.865	0.0536
